In ChEMBL document CHEMBL2331273 (Bioorg Med Chem Lett, 2013):
Active and inactive are the calls of the source. No cut-off for these calls is given here.

Experiments:
[1] = molecular target: 3',5'-cyclic-AMP phosphodiesterase 4B (Homo sapiens, UniProt Q07343); assay: Inhibition of human recombinant PDE4B2 assessed as decrease in cAMP hydrolysis preincubated with substrate prior to enzyme addition measured after 30 mins by colorimetric assay method
[2] = molecular target: Beta-2 adrenergic receptor (Cavia porcellus, UniProt Q8K4Z4); assay: Agonist activity at beta2-adrenoceptor in guinea pig trachea assessed as relaxation of histamine-induced precontracted tracheal rings
Chain of Beta-2 adrenergic receptor (Q8K4Z4 whole entry): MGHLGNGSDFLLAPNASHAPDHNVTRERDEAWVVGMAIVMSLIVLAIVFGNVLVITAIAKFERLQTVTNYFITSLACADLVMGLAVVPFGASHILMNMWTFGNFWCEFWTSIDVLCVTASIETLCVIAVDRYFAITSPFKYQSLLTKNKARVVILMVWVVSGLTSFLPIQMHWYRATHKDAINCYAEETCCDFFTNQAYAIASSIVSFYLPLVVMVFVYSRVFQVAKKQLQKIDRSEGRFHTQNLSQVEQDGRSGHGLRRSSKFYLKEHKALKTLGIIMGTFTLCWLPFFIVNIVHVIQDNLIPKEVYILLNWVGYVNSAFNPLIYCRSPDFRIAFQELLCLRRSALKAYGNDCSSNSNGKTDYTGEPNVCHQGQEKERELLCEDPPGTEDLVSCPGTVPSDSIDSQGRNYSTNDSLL

[3] = molecular target: Beta-2 adrenergic receptor (Cavia porcellus) (UniProt Q8K4Z4); assay: Agonist activity at beta2-adrenoceptor in guinea pig trachea assessed as relaxation of histamine-induced precontracted tracheal rings treated 10 mins after histamine and beta2-adrenoceptor antagonist, ICI 118,551 addition
Chain of Beta-2 adrenergic receptor (Cavia porcellus) (Q8K4Z4 whole entry, looked up): as the sequence (Q8K4Z4 whole entry) above

Chain of 3',5'-cyclic-AMP phosphodiesterase 4B (Q07343 whole entry): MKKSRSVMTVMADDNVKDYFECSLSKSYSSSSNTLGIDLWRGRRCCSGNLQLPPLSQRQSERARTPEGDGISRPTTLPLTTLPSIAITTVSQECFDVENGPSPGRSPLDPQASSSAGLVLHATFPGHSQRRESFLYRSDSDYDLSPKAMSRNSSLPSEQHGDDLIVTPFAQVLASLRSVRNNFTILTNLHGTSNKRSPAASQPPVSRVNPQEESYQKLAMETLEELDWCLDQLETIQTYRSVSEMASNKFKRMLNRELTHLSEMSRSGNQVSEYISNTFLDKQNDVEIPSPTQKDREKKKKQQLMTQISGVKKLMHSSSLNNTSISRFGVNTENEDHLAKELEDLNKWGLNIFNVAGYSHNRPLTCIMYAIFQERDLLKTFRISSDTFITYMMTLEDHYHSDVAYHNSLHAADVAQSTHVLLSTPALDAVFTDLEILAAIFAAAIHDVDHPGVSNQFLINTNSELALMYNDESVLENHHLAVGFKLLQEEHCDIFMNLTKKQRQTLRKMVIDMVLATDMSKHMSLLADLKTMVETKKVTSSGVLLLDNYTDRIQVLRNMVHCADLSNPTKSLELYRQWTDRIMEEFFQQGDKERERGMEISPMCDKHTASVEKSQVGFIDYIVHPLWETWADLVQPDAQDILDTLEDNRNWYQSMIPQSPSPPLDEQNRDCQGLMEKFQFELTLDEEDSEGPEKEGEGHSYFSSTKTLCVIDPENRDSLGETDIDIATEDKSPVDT

COc1ccc(C(=O)Nc2c(Cl)cncc2Cl)cc1OCCCCCNCC(O)c1ccc(O)c(CO)c1 (centres undefined)
IC50 [1]: 394 nM | EC50 [2]: 1.95 nM

COc1ccc(C2=NN(CCNCC(O)c3ccc(O)c(CO)c3)C(=O)C3CCCCC23)cc1OC (centres undefined)
IC50 [1]: 282 nM | EC50 [2]: 0.646 nM

CC(C)NCC(O)c1ccc(O)c(O)c1 (centres undefined) [ISOPROTERENOL]
EC50 [2]: 28.8 nM

COc1ccc(C2=NN(CCCCNCC(O)c3ccc(O)c(CO)c3)C(=O)C3CCCCC23)cc1OC (centres undefined)
IC50 [1]: 278 nM | EC50 [2]: 0.676 nM

COc1ccc(C(=O)Nc2c(Cl)cncc2Cl)cc1OCCCCNCC(O)c1ccc(O)c(CO)c1 (centres undefined)
IC50 [1]: 601 nM | EC50 [2]: 2.82 nM

COc1ccc(C(=O)Nc2c(Cl)cncc2Cl)cc1OCCCCCCNCC(O)c1ccc(O)c(CO)c1 (centres undefined)
Activity [3]: inactive | IC50 [1]: 235 nM | EC50 [2]: 3.16 nM

COc1ccc(C2=NN(CCCCCCNCC(O)c3ccc(O)c(CO)c3)C(=O)C3CCCCC23)cc1OC (centres undefined)
Activity [3]: inactive | IC50 [1]: 263 nM | EC50 [2]: 0.631 nM

COc1ccc(C2=NN(CCCCCNCC(O)c3ccc(O)c(CO)c3)C(=O)C3CCCCC23)cc1OC (centres undefined)
IC50 [1]: 271 nM | EC50 [2]: 0.832 nM

COc1ccc(C(=O)Nc2c(Cl)cncc2Cl)cc1OCCCNCC(O)c1ccc(O)c(CO)c1 (centres undefined)
IC50 [1]: 1090 nM | EC50 [2]: 3.39 nM
